Laboratory results reported in patent US8445409B2, “Use of 5-benzyloxymethyl-1,2-isoxazoline derivatives as a herbicide” (Moghu Research Center Ltd., priority 2007, dated 2013).

Experiments:
Large crabgrass [1] = test: Herbicidal activity at different growth stages, fresh weight suppression; type: in vivo; details: .12 kg/ha, fresh weight two weeks after treatment
turfgrasses = test: Example 3-1, turfgrasses as a group; type: in vivo; details: 2 kg/ha or below
Source text: Commercially available sod mats of zoysiagrass and bentgrass, Kentucky bluegrass, and perennial ryegrass were purchased. After cutting each turf sod mat in a size of 10 cm×20 cm, it was transplanted to a rectangular plastic pot having a surface area of 300 cm^2 wherein mixed soils including blend of a bed soil (Boonong, Horticultural Nursery Soil No. 3) and sandy loam soil were filled (mixing ratio, 1:1). After transplanting, the grass was mowed (0.5˜1.0 cm in height) once a week, and kept for one month in a greenhouse maintained at 25˜30° C. (day) or 15˜25° C. (night). Then three strips of 1 cm width were removed by excision with a scissor. The open space was filled with a new soil, and seeds of large crabgrass, annual bluegrass, or goosegrass were sown. The pots were kept in a greenhouse. When the said weeds were grown up to the 3 leaf stage, another set was prepared in the same method. The first set represented post-emergence (POST) and the second set represented pre-emergence (PRE) stages of the weeds (large crabgrass, annual bluegrass, goosegrass). Then the test compound was applied at 0.25, 0.5. 1.0, 2.0, and 4.0 kg/ha. […] Four weeks after the spray of the test substance, phytotoxicity to the turfgrass and herbicidal activity to the said weeds were visually evaluated based on 0 to 100 scale (0: no phytotoxic effect, 100: completely killed). […]

Large crabgrass [2] = test: Upland pot test, pre-/post-emergence spray, visual rating; type: in vivo, large crabgrass (DIGSA); details: pre-emergence application, 0.06~0.12 kg/ha
Kentucky bluegrass = test: Selective control of grassy weeds in turf (Example 3-1), visual rating; type: in vivo; details: four weeks after spray, 0-100 scale (100=completely killed)
Source text: (§1) Commercially available sod mats of zoysiagrass and bentgrass, Kentucky bluegrass, and perennial ryegrass were purchased. After cutting each turf sod mat in a size of 10 cm×20 cm, it was transplanted to a rectangular plastic pot having a surface area of 300 cm^2 wherein mixed soils including blend of a bed soil (Boonong, Horticultural Nursery Soil No. 3) and sandy loam soil were filled (mixing ratio, 1:1). After transplanting, the grass was mowed (0.5˜1.0 cm in height) once a week, and kept for one month in a greenhouse maintained at 25˜30° C. (day) or 15˜25° C. (night). Then three strips of 1 cm width were removed by excision with a scissor. The open space was filled with a new soil, and seeds of large crabgrass, annual bluegrass, or goosegrass were sown. The pots were kept in a greenhouse. When the said weeds were grown up to the 3 leaf stage, another set was prepared in the same method. The first set represented post-emergence (POST) and the second set represented pre-emergence (PRE) stages of the weeds (large crabgrass, annual bluegrass, goosegrass). Then the test compound was applied at 0.25, 0.5. 1.0, 2.0, and 4.0 kg/ha. Spray was made by a track sprayer equipped with a Teejet 8002 nozzle. Spray volume was adjusted to 2,000 L/ha. The spray solution was prepared by dissolving the “test substance” in acetone and adding the same volume of 0.2% (v/v) Tween 20 aqueous solution. Four weeks after the spray of the test substance, phytotoxicity to the turfgrass and herbicidal activity to the said weeds were visually evaluated based on 0 to 100 scale (0: no phytotoxic effect, 100: completely killed). The test was conducted in a completely randomized design with 3 replicates.

Zoysiagrass = test: as above; type: in vivo; details: four weeks after spray, 0-100 scale (100=completely killed)
Source text: as §1

Perennial ryegrass = test: as above; type: in vivo; details: four weeks after spray, 0-100 scale (100=completely killed)
Source text: as §1

Bentgrass = test: as above; type: in vivo; details: four weeks after spray, 0-100 scale (100=completely killed)
Source text: as §1

Goosegrass = test: as above; type: in vivo; details: four weeks after spray, 0-100 scale (100=completely killed); for Herbicidal activity, visual: Weeds GSG (POST): 3 leaf stage
Source text: as §1

Large crabgrass [3] = test: as above; type: in vivo; details: four weeks after spray, 0-100 scale (100=completely killed); for Herbicidal activity, visual: Weeds LCG (POST): 3 leaf stage
Source text: as §1

Annual bluegrass = test: as above; type: in vivo; details: four weeks after spray, 0-100 scale (100=completely killed); for Herbicidal activity, visual: Weeds ABG (POST): 3 leaf stage
Source text: as §1

Foxtail = test: Upland pot test, pre-/post-emergence spray, visual rating; type: in vivo, green foxtail (SETVI); details: 2 weeks after spray, 0-10 scale (10=completely killed)
Source text: To a rectangular plastic pot having a surface area of 300 cm^2, mixed soils including blend bed soil (Boonong, Horticultural Bed Soil No. 3) and sandy loam soil were filled (mixing ratio, 1:1). Seeds of the eight different types of weeds including gramineous weed such as barnyardgrass, large crabgrass, green foxtail, fall panicum, and broadleaf weed such as common cocklebur, velvetleaf, Indian joint-vetch, and morningglory were sown. To the other pot containing the same soil mixture, seeds of the five different types of crops including corn, soybean, cotton, wheat and rice were sown. Pots were kept in a greenhouse of which temperature was maintained at 25˜30° C. (day) or 15˜25° C. (night), and regularly watered.
After fourteen days and when the crops and the weeds reached their three-leaf stage, the other set of a crop pot and a weed pot were prepared by the same method as described above. Then, “test substance” was sprayed thereto. In this case, spray treatment to the plants after they have grown for two weeks corresponded to post-emergence treatment while spray treatment to the seeds right after the sowing corresponded to pre-emergence treatment. Spray was carried out by using a track sprayer (R&D Sprayer, USA) equipped with a Teejet 8002 nozzle (Spraying Systems Co., USA). Spray volume was adjusted to 300 L/ha. The spray solution was prepared by dissolving the “test substance” in acetone and adding the same volume of 0.2% (v/v) Tween 20 aqueous solution. Dosage of the test substance was 500, 250, 125, 62.5 or 31.3 g/ha. Two weeks after the spray of the test substance, efficacy and phytotoxic effect to the crops and the weeds were visually measured based on a 0 to 10 scale (0: no efficacy, 10: completely killed).

With `Cc1ccsc1C1=NOC(C)(COCc2c(F)cccc2F)C1` (centres unmarked) [test substance, 5-(2,6-difluorobenzyl)oxymethyl-5-methyl-3-(4-methylthiophen-5-yl)-1,2-isoxazoline] the “Suppression ratio relative to the biomass of the untreated group: Large crabgrass 1 leaf” value (Large crabgrass [1]) was 95%, the “Suppression ratio relative to the biomass of the untreated group: Large crabgrass 3 leaf” value (Large crabgrass [1]) was 23% and the “Suppression ratio relative to the biomass of the untreated group: Large crabgrass PRE” value (Large crabgrass [1]) was 84%. For the same compound, the “Visible injury to turfgrasses (in words)” value (turfgrasses) was “did not show any visible injury”, the “Control of large crabgrass (in words)” value (Large crabgrass [2]) was “almost completely” and the “Phytotoxicity, visual: Turfgrass KBG” value (Kentucky bluegrass; 0.25 kg/ha) was 0. For the same compound, the “Phytotoxicity, visual: Turfgrass KBG” value (Kentucky bluegrass; 0.5 kg/ha) was 0, the “Phytotoxicity, visual: Turfgrass KBG” value (Kentucky bluegrass; 1 kg/ha) was 0 and the “Phytotoxicity, visual: Turfgrass KBG” value (Kentucky bluegrass; 2 kg/ha) was 0. For the same compound, the “Phytotoxicity, visual: Turfgrass KBG” value (Kentucky bluegrass; 4 kg/ha) was 21, the “Phytotoxicity, visual: Turfgrass ZSG” value (Zoysiagrass; 0.25 kg/ha) was 0 and the “Phytotoxicity, visual: Turfgrass ZSG” value (Zoysiagrass; 0.5 kg/ha) was 0. The “Phytotoxicity, visual: Turfgrass ZSG” value (Zoysiagrass; 1 kg/ha) was 0, the “Phytotoxicity, visual: Turfgrass ZSG” value (Zoysiagrass; 2 kg/ha) was 0 and the “Phytotoxicity, visual: Turfgrass ZSG” value (Zoysiagrass; 4 kg/ha) was 12. The “Phytotoxicity, visual: Turfgrass PRG” value (Perennial ryegrass; 0.25 kg/ha) was 0, the “Phytotoxicity, visual: Turfgrass PRG” value (Perennial ryegrass; 0.5 kg/ha) was 0 and the “Phytotoxicity, visual: Turfgrass PRG” value (Perennial ryegrass; 1 kg/ha) was 0. For the same compound, the “Phytotoxicity, visual: Turfgrass PRG” value (Perennial ryegrass; 2 kg/ha) was 0, the “Phytotoxicity, visual: Turfgrass PRG” value (Perennial ryegrass; 4 kg/ha) was 0 and the “Phytotoxicity, visual: Turfgrass BTG” value (Bentgrass; 0.25 kg/ha) was 0. For the same compound, the “Phytotoxicity, visual: Turfgrass BTG” value (Bentgrass; 0.5 kg/ha) was 0, the “Phytotoxicity, visual: Turfgrass BTG” value (Bentgrass; 1 kg/ha) was 0 and the “Phytotoxicity, visual: Turfgrass BTG” value (Bentgrass; 2 kg/ha) was 0. For the same compound, the “Phytotoxicity, visual: Turfgrass BTG” value (Bentgrass; 4 kg/ha) was 10, the “Herbicidal activity, visual: Weeds GSG (POST)” value (Goosegrass; 0.25 kg/ha) was 85 and the “Herbicidal activity, visual: Weeds GSG (PRE)” value (Goosegrass; 0.25 kg/ha) was 100. The “Herbicidal activity, visual: Weeds GSG (POST)” value (Goosegrass; 0.5 kg/ha) was 95, the “Herbicidal activity, visual: Weeds GSG (PRE)” value (Goosegrass; 0.5 kg/ha) was 100 and the “Herbicidal activity, visual: Weeds GSG (POST)” value (Goosegrass; 1 kg/ha) was 100. The “Herbicidal activity, visual: Weeds GSG (PRE)” value (Goosegrass; 1 kg/ha) was 100, the “Herbicidal activity, visual: Weeds GSG (POST)” value (Goosegrass; 2 kg/ha) was 100 and the “Herbicidal activity, visual: Weeds GSG (PRE)” value (Goosegrass; 2 kg/ha) was 100. The “Herbicidal activity, visual: Weeds GSG (POST)” value (Goosegrass; 4 kg/ha) was 100, the “Herbicidal activity, visual: Weeds GSG (PRE)” value (Goosegrass; 4 kg/ha) was 100 and the “Herbicidal activity, visual: Weeds LCG (POST)” value (Large crabgrass [3]; 0.25 kg/ha) was 80. For the same compound, the “Herbicidal activity, visual: Weeds LCG (PRE)” value (Large crabgrass [3]; 0.25 kg/ha) was 100, the “Herbicidal activity, visual: Weeds LCG (POST)” value (Large crabgrass [3]; 0.5 kg/ha) was 90 and the “Herbicidal activity, visual: Weeds LCG (PRE)” value (Large crabgrass [3]; 0.5 kg/ha) was 100. For the same compound, the “Herbicidal activity, visual: Weeds LCG (POST)” value (Large crabgrass [3]; 1 kg/ha) was 95, the “Herbicidal activity, visual: Weeds LCG (PRE)” value (Large crabgrass [3]; 1 kg/ha) was 100 and the “Herbicidal activity, visual: Weeds LCG (POST)” value (Large crabgrass [3]; 2 kg/ha) was 100. The “Herbicidal activity, visual: Weeds LCG (PRE)” value (Large crabgrass [3]; 2 kg/ha) was 100, the “Herbicidal activity, visual: Weeds LCG (POST)” value (Large crabgrass [3]; 4 kg/ha) was 100 and the “Herbicidal activity, visual: Weeds LCG (PRE)” value (Large crabgrass [3]; 4 kg/ha) was 100. For the same compound, the “Herbicidal activity, visual: Weeds ABG (POST)” value (Annual bluegrass; 0.25 kg/ha) was 60, the “Herbicidal activity, visual: Weeds ABG (PRE)” value (Annual bluegrass; 0.25 kg/ha) was 100 and the “Herbicidal activity, visual: Weeds ABG (POST)” value (Annual bluegrass; 0.5 kg/ha) was 75. The “Herbicidal activity, visual: Weeds ABG (PRE)” value (Annual bluegrass; 0.5 kg/ha) was 100, the “Herbicidal activity, visual: Weeds ABG (POST)” value (Annual bluegrass; 1 kg/ha) was 83 and the “Herbicidal activity, visual: Weeds ABG (PRE)” value (Annual bluegrass; 1 kg/ha) was 100. The “Herbicidal activity, visual: Weeds ABG (POST)” value (Annual bluegrass; 2 kg/ha) was 92, the “Herbicidal activity, visual: Weeds ABG (PRE)” value (Annual bluegrass; 2 kg/ha) was 100 and the “Herbicidal activity, visual: Weeds ABG (POST)” value (Annual bluegrass; 4 kg/ha) was 95. For the same compound, the “Herbicidal activity, visual: Weeds ABG (PRE)” value (Annual bluegrass; 4 kg/ha) was 100, the “Visual measurement: Gramineous weed, Foxtail” value (shortened to “Visual measurement”) (Foxtail; post-emergence foliar spray at three leaf stage, 31.2 g/ha) was 0 and the “Visual measurement” value (Foxtail; post-emergence foliar spray at three leaf stage, 62.5 g/ha) was 1. The “Visual measurement” value (Foxtail; post-emergence foliar spray at three leaf stage, 125 g/ha) was 2, the “Visual measurement” value (Foxtail; post-emergence foliar spray at three leaf stage, 250 g/ha) was 5 and the “Visual measurement” value (Foxtail; post-emergence foliar spray at three leaf stage, 500 g/ha) was 9. The “Visual measurement” value (Foxtail; pre-emergence soil treatment, 31.2 g/ha) was 1, the “Visual measurement” value (Foxtail; pre-emergence soil treatment, 62.5 g/ha) was 3 and the “Visual measurement” value (Foxtail; pre-emergence soil treatment, 125 g/ha) was 9. For the same compound, the “Visual measurement” value (Foxtail; pre-emergence soil treatment, 250 g/ha) was 9 and the “Visual measurement” value (Foxtail; pre-emergence soil treatment, 500 g/ha) was 10.
